The values that follow come from patent US4433154A, “Bis(carboxamide) derivatives” (Shionogi & Company, Limited, priority 1981, dated 1984).

The target of this assay is T1, histamine H2 receptor (Cavia porcellus, UniProt P47747).
T1 construct: enucleated atrium of a guinea pig; from tissue; host or cells: guinea pig atrium
T1 sequence (P47747 whole entry): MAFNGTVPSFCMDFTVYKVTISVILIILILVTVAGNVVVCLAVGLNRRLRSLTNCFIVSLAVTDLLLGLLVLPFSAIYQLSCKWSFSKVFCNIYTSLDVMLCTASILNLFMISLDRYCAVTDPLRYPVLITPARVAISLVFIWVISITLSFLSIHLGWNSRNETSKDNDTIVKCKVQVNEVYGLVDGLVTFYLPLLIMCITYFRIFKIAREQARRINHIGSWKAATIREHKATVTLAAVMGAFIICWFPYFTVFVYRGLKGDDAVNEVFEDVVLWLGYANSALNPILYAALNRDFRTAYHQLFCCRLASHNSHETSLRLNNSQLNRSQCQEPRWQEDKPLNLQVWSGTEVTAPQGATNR
As to the kind of experiment: Histamine H2-blocking effect in enucleated guinea pig atrium (inhibition of histamine-increased pulse). The format is cell-based. The settings on record: in vitro; enucleated guinea pig atrium pretreated with drug; negative logarithm of antagonist dose shifting histamine dose-response curve corresponding to doubling of histamine concentration; read-out: pA2 (converted). The source says: In the table 10, the symbol pA2 indicates the degree of pulse inhibition of the compounds (I) in the present invention in the enucleated atrium of a guinea pig. The assigned number of compounds in the table conforms to the number of the examples.
(Note) PA2 is an in vitro indicator of histamine H2 -blocking effect. […] The result was shown by negative logarithms of the dose of antagonist which is required to shift the dose-response curve of histamine in parallel to the side corresponding to a doubling of the concentration of histamine [Ariens, Molecular Pharmacology, vol./, Academic Press, New York (1964)].
Take `O=C(/C=C/C(=O)NCCCOc1cccc(CN2CCCC2)c1)NCCCOc1cccc(CN2CCCC2)c1` [Example 10, N,N'-bis{3-[3-(1-pyrrolidinylmethyl)phenoxy]propyl}fumaramide]: the Kb is 53.7 nM.

Take `O=C(NCCCOc1cccc(CN2CCCC2)c1)c1ccc(C(=O)NCCCOc2cccc(CN3CCCC3)c2)cc1` [Example 11]: the Kb is 204 nM.

For the molecule `O=C(CSCC(=O)NCCCOc1cccc(CN2CCCC2)c1)NCCCOc1cccc(CN2CCCC2)c1` [Example 12, N,N'-bis{3-[3-(1-pyrrolidinylmethyl)phenoxy]propyl}thiodiglycoldamide], the Kb is 66.1 nM.

With `O=C(NCCCOc1cccc(CN2CCCC2)c1)c1cccc(C(=O)NCCCOc2cccc(CN3CCCC3)c2)c1` [Example 14], the Kb is 60.3 nM.
